The text below walks through data of patent publication US8227604B2, “Hybrid 2-aminotetralin and aryl-substituted piperazine compounds and their use in altering CNS activity” (Wayne State University, priority 2001, dated 2012).

The target of one data set is T1, 5HT1A receptor (Homo sapiens, UniProt P08908).
T1 construct: expressed in transfected cells; host or cells: HA7 cells
T1 sequence (P08908 1-422): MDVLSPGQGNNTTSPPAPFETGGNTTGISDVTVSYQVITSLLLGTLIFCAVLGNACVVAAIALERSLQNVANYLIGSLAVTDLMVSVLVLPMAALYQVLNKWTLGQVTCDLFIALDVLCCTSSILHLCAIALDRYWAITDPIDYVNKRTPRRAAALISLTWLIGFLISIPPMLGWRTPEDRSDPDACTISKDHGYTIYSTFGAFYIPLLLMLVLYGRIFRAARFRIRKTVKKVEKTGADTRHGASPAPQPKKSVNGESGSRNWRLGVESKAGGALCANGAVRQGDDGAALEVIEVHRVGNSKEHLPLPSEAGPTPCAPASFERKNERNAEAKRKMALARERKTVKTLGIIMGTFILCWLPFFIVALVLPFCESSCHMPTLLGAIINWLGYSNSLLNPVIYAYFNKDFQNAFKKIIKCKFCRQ
Nature of the data set: Binding affinity at cloned human 5HT1A receptor, [3H]8-OH-DPAT (HA7 cells). How it is done: HA7 cells (human receptor) are grown to confluence in DMEM containing 10% fetal calf serum, 0.05% penicillin-streptomycin (pen-strep), and […] of G418. The cells are scraped from the 100 by 20 mm plates and centrifuged at 500·G for 5 min. The pellet is homogenized in 50 mM Tris-HCl, pH 7.7, with a polytron, centrifuged at 27,000·G and resuspended at 10 mg protein/ml in the same buffer. The homogenate is then stored at −70° C. in 1-ml aliquots.
The thawed cells are washed once and resuspended at 10 mg protein/80 ml in 25 mM Tris-HCl containing 100 μM of ascorbic acid and 10 mM of nialamide at pH 7.4. The assay is performed in triplicate in a 96-well plate. To 100 μl of [^3H]8-OH-DPAT (0.5 nM final conc), […] of test compound or buffer and 0.8 ml of cell homogenate (0.1 mg protein/well) is added to each well by a Tomtec Quadra 96. Nonspecific binding is defined using 1 μM dihydroergotamine. The plates are incubated at 25° C. for 60 min, then filtered. The incubation is terminated by rapid filtration through glass fiber filter paper on a Tomtec cell harvester. The filters are washed four times with ice-cold 50 mM Tris-HCl, pH 7.7, dried overnight, bagged with 10 ml scintillation cocktail before counting for 2 min. on a Wallac Betaplate 1205 liquid scintillation counter.

The next data set concerns the target T2, 5HT2C receptor (Homo sapiens, UniProt P28335).
T2 construct: expressed in transfected cells
T2 sequence (P28335 33-458): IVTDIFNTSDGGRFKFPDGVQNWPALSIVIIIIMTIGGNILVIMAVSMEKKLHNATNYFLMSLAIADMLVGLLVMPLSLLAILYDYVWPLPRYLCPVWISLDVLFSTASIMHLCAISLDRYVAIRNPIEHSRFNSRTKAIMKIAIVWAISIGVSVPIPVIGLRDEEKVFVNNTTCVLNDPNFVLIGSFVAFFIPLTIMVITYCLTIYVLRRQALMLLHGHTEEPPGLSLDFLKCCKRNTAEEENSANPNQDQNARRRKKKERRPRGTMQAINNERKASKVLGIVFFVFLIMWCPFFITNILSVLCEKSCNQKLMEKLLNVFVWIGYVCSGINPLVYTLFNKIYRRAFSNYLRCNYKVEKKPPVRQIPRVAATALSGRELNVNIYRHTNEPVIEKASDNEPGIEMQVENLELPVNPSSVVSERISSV
Put plainly: Binding affinity at cloned human 5HT2C receptor, [3H]Mesulergine.

Another data set deals with T3, D1 receptor (Homo sapiens, UniProt P21728).
T3 construct: expressed in transfected cells; host or cells: LHD1 cells
T3 sequence (P21728 whole entry): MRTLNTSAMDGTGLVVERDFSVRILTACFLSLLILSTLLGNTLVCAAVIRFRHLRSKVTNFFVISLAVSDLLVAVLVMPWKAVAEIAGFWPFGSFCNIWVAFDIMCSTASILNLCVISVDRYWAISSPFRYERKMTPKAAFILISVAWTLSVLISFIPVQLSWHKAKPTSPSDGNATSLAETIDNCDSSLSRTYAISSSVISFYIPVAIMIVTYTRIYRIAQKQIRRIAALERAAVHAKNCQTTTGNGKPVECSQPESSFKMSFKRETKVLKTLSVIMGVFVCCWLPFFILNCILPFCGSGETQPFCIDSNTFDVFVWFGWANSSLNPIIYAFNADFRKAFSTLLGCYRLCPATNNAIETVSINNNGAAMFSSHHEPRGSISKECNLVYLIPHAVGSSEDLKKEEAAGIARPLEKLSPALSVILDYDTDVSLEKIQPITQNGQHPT
Put plainly: Binding affinity at cloned human D1 receptor, [3H]SCH23390 (LHD1 cells). As to the method:
LHD1 cells (human receptor) are grown and prepared as described for the HA7 cells as described hereafter. The final pellet is resuspended at 5 mg protein/80 ml in 50 mM Tris-HCl containing 120 mM of NaCl, 5 mM of KCl, 2 mM of CaCl2, and 1 mM of MgCl2, pH 7.4. To wells containing 100 μl of test drug or buffer and […] of [^3H]SCH 23390 (0.18 nM final conc.), is added 0.8 ml of cell homogenate (0.05 mg protein/well), and the plates are incubated at […] for 60 min. Nonspecific binding is determined with 1 μM of SCH 23390.

For another data set, the target named is T4, 5HT2A receptor (Homo sapiens, UniProt P28223).
T4 construct: expressed in transfected cells
T4 sequence (P28223 whole entry): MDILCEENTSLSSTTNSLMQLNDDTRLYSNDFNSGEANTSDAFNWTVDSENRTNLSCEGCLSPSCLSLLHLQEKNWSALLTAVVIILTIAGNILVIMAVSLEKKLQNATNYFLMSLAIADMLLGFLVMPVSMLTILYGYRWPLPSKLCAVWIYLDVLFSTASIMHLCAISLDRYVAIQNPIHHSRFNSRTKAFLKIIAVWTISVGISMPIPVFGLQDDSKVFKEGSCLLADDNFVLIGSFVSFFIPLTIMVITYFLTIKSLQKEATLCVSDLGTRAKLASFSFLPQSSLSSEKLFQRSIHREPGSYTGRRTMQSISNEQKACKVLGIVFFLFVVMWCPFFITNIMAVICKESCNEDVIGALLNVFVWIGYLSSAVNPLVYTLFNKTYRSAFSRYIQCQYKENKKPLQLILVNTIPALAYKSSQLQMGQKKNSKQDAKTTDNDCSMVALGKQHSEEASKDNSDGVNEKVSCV
Put plainly: Binding affinity at cloned human 5HT2A receptor, [3H]Ketanserin.

In data set [1] the target is T5, D4 receptor (Homo sapiens, UniProt P21917).
T5 sequence (P21917 1-419): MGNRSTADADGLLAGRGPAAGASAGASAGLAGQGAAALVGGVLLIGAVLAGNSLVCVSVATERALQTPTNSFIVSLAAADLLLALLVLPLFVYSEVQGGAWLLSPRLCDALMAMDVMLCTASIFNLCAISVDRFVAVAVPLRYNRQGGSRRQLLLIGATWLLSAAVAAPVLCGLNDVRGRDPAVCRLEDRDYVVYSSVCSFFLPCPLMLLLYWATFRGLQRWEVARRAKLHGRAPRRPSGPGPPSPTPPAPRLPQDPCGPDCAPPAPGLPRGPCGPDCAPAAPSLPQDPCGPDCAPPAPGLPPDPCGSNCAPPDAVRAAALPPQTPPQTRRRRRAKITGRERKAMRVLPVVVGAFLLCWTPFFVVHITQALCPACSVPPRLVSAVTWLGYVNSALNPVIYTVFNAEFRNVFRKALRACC
Put plainly: Binding affinity at cloned human D4 receptor, [3H]YM-09151-2 (CHO D4.4 cells). The arrangement: expressed in transfected cells; host or cells: CHO D4.4 cells. As to the method: CHO D4.4 cells (human receptors) are grown to confluence in D4 Puromycin medium containing 2 μg/ml puromycin, 5% fetal calf serum and 5 supplemented calf serum and 0.5% pen-strep. The cells are harvested as described for D2 and D3 cells and used at a concentration of 0.15 mg protein/well in the [^3H]YM-09151-2 binding assay.

A further data set addresses T6, D2 receptor (Homo sapiens, UniProt P14416).
T6 construct: expressed in transfected cells
Nature of the data set: Agonist potency by [3H]thymidine incorporation (mitogenesis), D2. The format is cell-based. Conditions: read-out: D2 % Maxm Stim. As to the method: (§1) Potential as domaminergenic agonists was assayed by ^3H-thymidine incorporation by standard techniques.
The EC50 values thus indicate intrinsic activities or functional activities of these compounds. The value of % maximum stimulation indicates whether a compound is a partial agonist or full agonist. Generally, a value greater than 80% is considered as a full agonist and anything less than 80% is considered as a partial agonist.
A general note: Uptake of a labelled nucleoside into DNA is a usual measure of proliferation.

The target in data set [2] is T5, D4 receptor. Nature of the data set: Agonist potency by [3H]thymidine incorporation (mitogenesis), D4. The arrangement: expressed in transfected cells. Format: cell-based. How it is done: as §1
The mitogenesis study results presented in Table 7 assay the ability of these ligands to act as agonists or antagonists. The EC50 values thus indicate intrinsic activities or functional activities of these compounds. The value of % maximum stimulation indicates whether a compound is a partial agonist or full agonist. Generally, a value greater than 80% is considered as a full agonist and anything less than 80% is considered as a partial agonist. A compound will be considered antagonist if it produces a negative result (no [3H]thymidine incorporation) in the assay. All the compounds reported in Table 7 are either full agonists or partial agonists.

The target in the next data set is T7, D2L receptor (Homo sapiens, UniProt P14416).
T7 construct: expressed in transfected cells; host or cells: HEK cells
T7 sequence (P14416 whole entry): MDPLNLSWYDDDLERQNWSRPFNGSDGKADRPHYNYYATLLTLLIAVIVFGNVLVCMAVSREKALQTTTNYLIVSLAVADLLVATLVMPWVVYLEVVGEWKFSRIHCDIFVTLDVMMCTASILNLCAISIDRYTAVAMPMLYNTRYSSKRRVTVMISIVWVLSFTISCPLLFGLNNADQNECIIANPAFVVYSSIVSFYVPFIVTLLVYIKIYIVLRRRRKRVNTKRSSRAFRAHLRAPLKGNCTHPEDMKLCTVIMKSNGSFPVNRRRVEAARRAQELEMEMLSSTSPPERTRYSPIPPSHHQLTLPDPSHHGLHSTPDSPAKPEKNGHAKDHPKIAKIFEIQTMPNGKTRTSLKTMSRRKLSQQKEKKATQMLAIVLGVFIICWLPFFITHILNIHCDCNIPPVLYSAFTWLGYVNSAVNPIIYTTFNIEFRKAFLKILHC
Put plainly: Inhibition constants for binding to cloned D2L receptor expressed in HEK cells, [3H]spiperone. How it is done:
(§2) Inhibition constants for binding to cloned D2L and D3 receptors expressed in HEK cells by displacing [^3H] spiperone were measured for several compounds.

Another data set concerns the target D3 receptor (Homo sapiens, UniProt P35462). Nature of the data set: Inhibition constants for binding to cloned D3 receptor expressed in HEK cells, [3H]spiperone. How it is done:
as §2

Where a name gives a salt, the structure may show the parent alone.

Usually melting point stands for the temperature of the solid-liquid transition. Usually Ki stands for the equilibrium dissociation constant of an inhibitor or competing ligand from its target. A high value points to a looser hold on the target. By EC50 is commonly meant the midpoint of the concentration-response curve. Lower therefore signals higher potency in that assay.

Chain of D3 receptor (P35462 whole entry): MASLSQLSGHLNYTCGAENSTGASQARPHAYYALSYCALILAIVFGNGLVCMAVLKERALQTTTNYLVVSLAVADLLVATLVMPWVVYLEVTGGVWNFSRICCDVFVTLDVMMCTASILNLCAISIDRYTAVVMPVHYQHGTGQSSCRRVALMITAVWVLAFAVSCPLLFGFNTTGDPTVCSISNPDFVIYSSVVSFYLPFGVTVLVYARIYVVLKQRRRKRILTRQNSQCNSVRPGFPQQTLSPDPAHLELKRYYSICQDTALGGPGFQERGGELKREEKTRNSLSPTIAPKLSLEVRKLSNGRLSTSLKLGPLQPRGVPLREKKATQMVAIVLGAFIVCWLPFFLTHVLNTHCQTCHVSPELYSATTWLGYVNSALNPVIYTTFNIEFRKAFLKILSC
T6 sequence (P14416 whole entry): as the sequence (P14416 whole entry) above

Turning to `C#CCN(CCCCN1CCN(c2ccccc2)CC1)C1CCc2ccc(O)cc2C1` (stereo not drawn) (as salt: HBr) [Compound 12b, 7-Hydroxy-2-[N-propargyl-(N-(4-phenylpiperazin-1-yl)-butyl)amino]tetralin], the melting point was in the range of 182 to 186 °C.

In the case of `CCCN(CCCCN1CCN(c2ccccc2)CC1)C1CCc2ccc(O)cc2C1` (stereo not drawn) (as salt: HBr) [Compound 15b, 7-Hydroxyl-2-[N-propyl-(N-(4-phenylpiperazin-1-yl)-butyl)amino]tetralin], the melting point was 152 to 156 °C.

On to `CCCN(CCCCN1CCN(c2cccc(Cl)c2Cl)CC1)C1CCc2ccc(O)cc2C1` (stereo not drawn) (as salt: HCl) [Compound 19a, 7-Hydroxy-2-[N-propyl-(N-(4-(2,3-dichlorophenyl)-piperazin-1-yl)-butyl)amino]tetralin], for which the melting point lay in the range of 155 to 159 °C.

Take `C#CCN(CCCCN1CCN(c2cccc(Cl)c2Cl)CC1)C1CCc2ccc(O)cc2C1` (stereo not drawn) (as salt: HCl) [Compound 19b, 7-Hydroxy-2-[N-propargyl-(N-(4-(2,3-dichlorophenyl)-piperazin-1-yl)-butyl)amino]tetralin]: the melting point lay within 180 to 183 °C.

In the case of `CCCN(CCN1CCN(c2ccccc2)CC1)C1CCc2nc(N)ncc2C1` (stereo not drawn) (as salt: HCl) [Compound 23, 2-Amino-6-[N-propyl-(N-(4-phenylpiperazin-1-yl)-ethyl)amino]-5,6,7,8-tetrahydrobenzopyrimidine], the melting point is 97 to 102 °C.

`CCCN(CCc1ccc(N)cc1)CCN1CCN(c2ccccc2)CC1` (as salt: hydrochloride) [Compound 29a, 4-(2-{[2-(4-Phenyl-piperazin-1-yl)-ethyl]-propyl-amino}-ethyl)-phenylamine] showed a melting point of 262 to 264 °C.

For `CCCN(CCc1cccc(N)c1)CCN1CCN(c2ccccc2)CC1` (as salt: hydrochloride) [Compound 29b, 3-(2-{[2-(4-Phenyl-piperazin-1-yl)-ethyl]-propyl-amino}-ethyl)-phenylamine], the melting point is 278 to 284 °C.

For `CCCN(CCc1ccc(NS(=O)(=O)c2ccc(Cl)cc2)cc1)CCN1CCN(c2ccccc2)CC1` (as salt: hydrochloride) [Compound 30a, 4-Chloro-N-[4-(2-{[2-(4-phenyl-piperazin-1-yl)-ethyl]-propyl-amino}-ethyl)-phenyl]-benzenesulfonamide], the melting point lay within 224 to 226 °C.

In the case of `CCCN(CCc1cccc(NS(=O)(=O)c2ccc(Cl)cc2)c1)CCN1CCN(c2ccccc2)CC1` (as salt: hydrochloride) [Compound 30b, 4-Chloro-N-[3-(2-{[2-(4-phenyl-piperazin-1-yl)-ethyl]-propyl-amino}-ethyl)-phenyl]-benzenesulfonamide], the melting point fell in the range of 220 to 224 °C.

As to `CCCN(CCC)C1CCc2ccc(O)cc2C1` (stereo not drawn) [Compound 7-OH-DPAT, reference compound], the Ki at 5HT1A receptor is 193 ± 3.4 nM; at 5HT2C receptor it was over 10000 nM; at D1 receptor, 2550 ± 1080 nM; at 5HT2A receptor it was over 10000 nM.

Turning to `C#CCN(CCCCN1CCN(c2ccccc2)CC1)C1CCc2ccc(O)cc2C1` (stereo not drawn) [Compound 12b, 7-Hydroxy-2-[N-propargyl-(N-(4-phenylpiperazin-1-yl)-butyl)amino]tetralin], the Ki on 5HT1A receptor was 15.2 ± 3.34 nM; on 5HT2C receptor, 3220 ± 52.9 nM; at D4 receptor [1] (cloned human D4), 28.9 ± 4.41 nM; at D1 receptor, 677 ± 34 nM; on 5HT2A receptor it was 260 ± 41.9 nM. Besides, the “affinity at the D4 receptor” value on D4 receptor [1] was “good affinity”. Also, the Emax at D2 receptor came to 85 ± 6.26%. For the same compound, at D4 receptor [2] ([3H]thymidine incorporation), the EC50 was 23.9 ± 3.57 nM. Further, the “D4 % Maxm Stim” value on D4 receptor [2] ([3H]thymidine incorporation, >80% full agonist) turned out to be 85.15 ± 17.64%. The “agonist character at the D4 receptor” value at D4 receptor [2] (functional assay) is listed as “full agonists”.

At D2L receptor, `CCCN(CCN1CCN(c2ccccc2)CC1)C1CCc2nc(N)ncc2C1` (stereo not drawn) [Compound 23, 2-Amino-6-[N-propyl-(N-(4-phenylpiperazin-1-yl)-ethyl)amino]-5,6,7,8-tetrahydrobenzopyrimidine] came in with a Ki of 1120 ± 144 nM.

For the compound `CCCN(CCN1CCN(c2ccccc2)CC1)C1CCc2sc(N)nc2C1` (stereo not drawn) [Compound 25, 2-Amino-5-[N-propyl-(N-(4-phenylpiperazin-1-yl)-ethyl)amino]-4,5,6,7-tetrahydrobenzothiazole], the inhibition constant Ki at D3 receptor (D3 expressed in HEK cells) is 4.14 ± 0.55 nM; at D2L receptor it was 2080 ± 162 nM. Also, the D2L/D3 at D3 receptor (ratio of Ki D2L to Ki D3, HEK cells, [3H]spiperone) is reported as 502.
